Source: ChEMBL document CHEMBL1141561, “A new series of neutral 5-substituted 4-anilinoquinazolines as potent, orally active inhibitors of erbB2 receptor tyrosine kinase” (Bioorg Med Chem Lett, 2008)
In brackets after ≈: the same amount, converted by molar mass. Blank lines part the entries; values can stand above or below the compound they belong to.

Legend:
[1] = Dissociation constant, pKa of the compound; format: physicochemical
[2] = target: Voltage-gated inwardly rectifying potassium channel KCNH2 (Homo sapiens, UniProt Q12809)
[3] = target: T1, Receptor tyrosine-protein kinase erbB-2 (Homo sapiens, UniProt P04626); assay: Inhibition of ebrB2 expressed in human MCF7 cells by autophosphorylation assay; format: cell-based
[4] = Fraction unbound ligand in Han Wistar rat plasma protein; format: ADME, cell-free
Rattus norvegicus [5] = assay: Clearance in Han Wistar rat assessed as hepatic blood flow at 2 mg/kg, iv and 5 mg/kg, po; format: ADME, organism-based, Liver; conditions: in vivo
[6] = Volume of distribution at steady state in Han Wistar rat at 2 mg/kg, iv and 5 mg/kg, po; format: ADME, organism-based; conditions: in vivo, read-out: Vdss
[7] = Bioavailability in Han Wistar rat at 2 mg/kg, iv and 5 mg/kg, po; format: ADME, organism-based; conditions: in vivo
[8] = Fraction unbound ligand in Beagle dog at 0.2 mg/kg, iv and 0.4 mg/kg, po; format: ADME, organism-based, Canis lupus familiaris; conditions: in vivo
Canis familiaris [9] = assay: Clearance in Beagle dog assessed as hepatic blood flow at 1 mg/kg, iv and 2 mg/kg, po; format: ADME, organism-based, Canis lupus familiaris, Liver; conditions: in vivo
[10] = Volume of distribution at steady state in Beagle dog at 1 mg/kg, iv and 2 mg/kg, po; format: ADME, organism-based, Canis lupus familiaris; conditions: in vivo, read-out: Vdss
[11] = Bioavailability in Beagle dog at 1 mg/kg, iv and 2 mg/kg, po; format: ADME, organism-based, Canis lupus familiaris; conditions: in vivo
[12] = Fraction unbound ligand in mouse plasma protein; format: ADME, cell-free
[13] = Solubility in aqueous phosphate buffer at pH 7.4 after 24 hrs; format: physicochemical
[14] = Partition coefficient, log D at pH 7.4; format: physicochemical; conditions: octanol/water
[15] = target: Epidermal growth factor receptor (Homo sapiens, UniProt P00533)
KB = assay: cells; conditions: Homo sapiens
Mus musculus [16] = species on record: Mus musculus; assay: animal or person; conditions: BT474c, po, 1 h, read-out: Inhibition
Mus musculus [17] = species on record: Mus musculus; assay: animal or person; conditions: BT474c, po, 8 h, read-out: Inhibition
[18] = target: T1, Receptor tyrosine-protein kinase erbB-2; assay: Inhibition of ebrB2
Canis familiaris [19] = assay: Clearance in Beagle dog assessed as hepatic blood flow at 0.2 mg/kg, iv and 0.4 mg/kg, po; format: ADME, organism-based, Canis lupus familiaris, Liver; conditions: in vivo
[20] = Volume of distribution at steady state in Beagle dog at 0.2 mg/kg, iv and 0.4 mg/kg, po; format: ADME, organism-based, Canis lupus familiaris; conditions: in vivo, read-out: Vdss
[21] = Bioavailability in Beagle dog at 0.2 mg/kg, iv and 0.4 mg/kg, po; format: ADME, organism-based, Canis lupus familiaris; conditions: in vivo
cells = conditions: Homo sapiens, BT474c
Mus musculus [22] = species on record: Mus musculus; assay: animal or person; conditions: BT474c, po, 1 h, read-out: Inhibition; remark: listed apart in the source
Mus musculus [23] = species on record: Mus musculus; assay: animal or person; conditions: BT474c, po, 8 h, read-out: Inhibition; remark: listed apart in the source
Rattus norvegicus [24] = assay: Clearance in Han Wistar rat assessed as hepatic blood flow at 0.4 mg/kg, iv and 1 mg/kg, po; format: ADME, organism-based, Liver; conditions: in vivo
[25] = Volume of distribution at steady state in Han Wistar rat at 0.4 mg/kg, iv and 1 mg/kg, po; format: ADME, organism-based; conditions: in vivo, read-out: Vdss
[26] = Bioavailability in Han Wistar rat at 0.4 mg/kg, iv and 1 mg/kg, po; format: ADME, organism-based; conditions: in vivo

Sequence of Epidermal growth factor receptor (P00533 whole entry): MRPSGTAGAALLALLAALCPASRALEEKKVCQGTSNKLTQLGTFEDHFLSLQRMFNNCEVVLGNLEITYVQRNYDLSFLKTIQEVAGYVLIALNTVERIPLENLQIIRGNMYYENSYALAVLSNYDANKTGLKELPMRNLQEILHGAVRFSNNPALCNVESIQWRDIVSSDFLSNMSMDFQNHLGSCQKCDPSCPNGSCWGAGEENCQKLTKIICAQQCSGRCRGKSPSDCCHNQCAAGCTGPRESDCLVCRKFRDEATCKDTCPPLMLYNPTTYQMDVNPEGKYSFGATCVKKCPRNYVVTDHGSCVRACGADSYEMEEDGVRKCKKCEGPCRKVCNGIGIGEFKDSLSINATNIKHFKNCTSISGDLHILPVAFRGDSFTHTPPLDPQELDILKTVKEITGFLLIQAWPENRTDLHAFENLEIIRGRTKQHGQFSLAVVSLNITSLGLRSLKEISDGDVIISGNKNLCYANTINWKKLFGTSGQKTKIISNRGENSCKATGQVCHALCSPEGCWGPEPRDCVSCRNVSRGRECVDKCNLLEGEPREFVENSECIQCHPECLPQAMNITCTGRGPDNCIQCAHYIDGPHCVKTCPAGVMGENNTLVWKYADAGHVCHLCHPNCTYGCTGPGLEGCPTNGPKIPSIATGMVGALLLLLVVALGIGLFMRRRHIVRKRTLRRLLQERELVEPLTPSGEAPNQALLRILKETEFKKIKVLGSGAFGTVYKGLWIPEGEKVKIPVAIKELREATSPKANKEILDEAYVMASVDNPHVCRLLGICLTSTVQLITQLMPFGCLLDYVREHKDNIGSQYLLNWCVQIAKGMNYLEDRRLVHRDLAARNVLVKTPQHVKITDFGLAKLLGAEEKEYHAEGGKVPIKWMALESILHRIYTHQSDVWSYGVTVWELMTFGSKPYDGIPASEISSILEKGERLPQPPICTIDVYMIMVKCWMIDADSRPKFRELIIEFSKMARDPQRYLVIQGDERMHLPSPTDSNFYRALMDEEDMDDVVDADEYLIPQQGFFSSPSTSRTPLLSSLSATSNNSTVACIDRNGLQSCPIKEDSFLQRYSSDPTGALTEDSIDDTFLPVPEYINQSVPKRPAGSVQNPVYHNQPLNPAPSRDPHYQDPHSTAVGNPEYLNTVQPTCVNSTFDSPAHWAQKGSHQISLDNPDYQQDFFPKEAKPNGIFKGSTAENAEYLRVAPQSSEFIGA
T1 sequence (P04626 whole entry): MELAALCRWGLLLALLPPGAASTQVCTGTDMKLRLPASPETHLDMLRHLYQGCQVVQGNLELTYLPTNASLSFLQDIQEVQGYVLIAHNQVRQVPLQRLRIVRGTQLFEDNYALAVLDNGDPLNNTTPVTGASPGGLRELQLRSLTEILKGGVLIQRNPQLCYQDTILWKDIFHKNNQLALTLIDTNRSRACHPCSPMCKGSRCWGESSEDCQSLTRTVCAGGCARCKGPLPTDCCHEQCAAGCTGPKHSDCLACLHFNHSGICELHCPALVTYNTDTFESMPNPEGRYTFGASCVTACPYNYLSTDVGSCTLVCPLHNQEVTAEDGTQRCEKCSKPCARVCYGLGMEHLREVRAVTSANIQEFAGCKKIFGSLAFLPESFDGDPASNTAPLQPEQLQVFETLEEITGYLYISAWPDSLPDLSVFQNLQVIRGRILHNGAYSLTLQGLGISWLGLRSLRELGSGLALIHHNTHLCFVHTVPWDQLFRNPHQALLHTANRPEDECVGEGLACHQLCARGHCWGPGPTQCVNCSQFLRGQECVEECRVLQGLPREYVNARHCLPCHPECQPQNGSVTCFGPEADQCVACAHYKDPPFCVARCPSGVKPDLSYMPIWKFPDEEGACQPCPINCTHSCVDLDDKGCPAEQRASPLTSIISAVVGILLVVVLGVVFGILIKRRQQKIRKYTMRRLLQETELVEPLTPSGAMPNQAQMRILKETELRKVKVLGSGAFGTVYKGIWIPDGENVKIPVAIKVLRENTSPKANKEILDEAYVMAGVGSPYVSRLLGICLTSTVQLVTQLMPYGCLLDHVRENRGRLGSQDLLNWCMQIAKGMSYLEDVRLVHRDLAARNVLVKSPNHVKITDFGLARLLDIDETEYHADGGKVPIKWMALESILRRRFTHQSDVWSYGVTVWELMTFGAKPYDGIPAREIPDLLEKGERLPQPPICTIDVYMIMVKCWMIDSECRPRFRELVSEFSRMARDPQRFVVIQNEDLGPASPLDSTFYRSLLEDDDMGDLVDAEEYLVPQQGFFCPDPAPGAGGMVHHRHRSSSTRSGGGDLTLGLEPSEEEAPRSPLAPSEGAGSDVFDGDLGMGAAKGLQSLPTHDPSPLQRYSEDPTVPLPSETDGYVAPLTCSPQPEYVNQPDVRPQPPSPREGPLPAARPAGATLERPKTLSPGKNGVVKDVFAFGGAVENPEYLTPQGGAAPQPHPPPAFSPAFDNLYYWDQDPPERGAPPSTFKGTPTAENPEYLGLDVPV
Sequence of Voltage-gated inwardly rectifying potassium channel KCNH2 (Q12809 whole entry): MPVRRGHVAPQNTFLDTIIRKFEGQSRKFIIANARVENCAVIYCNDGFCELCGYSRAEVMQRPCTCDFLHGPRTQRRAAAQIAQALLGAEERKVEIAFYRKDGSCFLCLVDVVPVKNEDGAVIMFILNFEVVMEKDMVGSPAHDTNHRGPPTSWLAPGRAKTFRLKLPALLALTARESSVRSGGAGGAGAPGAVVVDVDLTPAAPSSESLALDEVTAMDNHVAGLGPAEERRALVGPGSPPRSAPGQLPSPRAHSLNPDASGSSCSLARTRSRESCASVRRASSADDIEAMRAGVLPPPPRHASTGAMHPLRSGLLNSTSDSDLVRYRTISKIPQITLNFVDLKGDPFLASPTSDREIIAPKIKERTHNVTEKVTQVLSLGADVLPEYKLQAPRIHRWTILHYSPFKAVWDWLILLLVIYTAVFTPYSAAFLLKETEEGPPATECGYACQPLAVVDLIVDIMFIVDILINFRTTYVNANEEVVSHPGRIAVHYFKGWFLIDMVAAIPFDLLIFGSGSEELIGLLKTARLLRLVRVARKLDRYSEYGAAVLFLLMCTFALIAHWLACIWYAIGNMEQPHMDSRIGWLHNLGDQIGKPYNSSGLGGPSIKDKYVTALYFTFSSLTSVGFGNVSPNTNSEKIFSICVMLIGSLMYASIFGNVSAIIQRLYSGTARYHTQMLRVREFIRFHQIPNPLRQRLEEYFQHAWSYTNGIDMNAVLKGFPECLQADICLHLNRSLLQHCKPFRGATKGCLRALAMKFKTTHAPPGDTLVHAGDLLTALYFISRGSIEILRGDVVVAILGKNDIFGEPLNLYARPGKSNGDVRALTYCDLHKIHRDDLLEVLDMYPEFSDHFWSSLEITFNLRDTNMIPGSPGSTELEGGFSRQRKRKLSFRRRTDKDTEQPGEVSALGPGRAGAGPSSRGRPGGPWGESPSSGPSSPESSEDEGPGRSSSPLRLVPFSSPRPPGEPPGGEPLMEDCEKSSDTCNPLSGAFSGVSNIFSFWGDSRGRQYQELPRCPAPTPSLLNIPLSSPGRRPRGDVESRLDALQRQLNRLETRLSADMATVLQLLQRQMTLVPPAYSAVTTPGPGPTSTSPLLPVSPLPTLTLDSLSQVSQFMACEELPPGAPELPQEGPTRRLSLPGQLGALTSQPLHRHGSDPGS

SMILES: CN1CCC(Oc2cccc3ncnc(Nc4ccc(OCc5ccccn5)c(Cl)c4)c23)CC1
- pKa [1]: 8.1
- IC50 [2]: 5000 nM

SMILES: C[C@H](Oc1cccc2ncnc(Nc3ccc(OCc4ccccn4)c(Cl)c3)c12)C(=O)N(C)CCO
- IC50 [3]: 79 nM

SMILES: Cc1ccc(Oc2ccc(Nc3ncnc4cccc(O[C@H](C)C(=O)N(C)C)c34)cc2C)cn1
- fraction unbound [4]: 0.017
- %hepatic blood flow (Rattus norvegicus [5]): 12%
- Vd [6]: 0.9 L/kg
- bioavailability [7]: 67%
- fraction unbound [8]: 0.025
- %hepatic blood flow (Canis familiaris [9]): 48%
- Vd [10]: 1.8 L/kg
- bioavailability [11]: 47%
- fraction unbound [12]: 0.011
- solubility at 24 h [13]: 28 µM (≈ 12.8 µg/mL)
- logD [14]: > 4.3
- IC50 [2]: 8000 nM
- IC50 [15]: 1100 nM
- IC50 (KB): 2700 nM
- inhibition in vivo at 100 mg/kg (Mus musculus [16]): 37%
- inhibition in vivo at 100 mg/kg (Mus musculus [17]): 55%

SMILES: Cc1ccc(Oc2ccc(Nc3ncnc4cccc(O[C@H](C)C(=O)N(C)CCO)c34)cc2C)cn1
- IC50 [3]: 69 nM
- IC50 [18]: 2 nM
- fraction unbound [4]: 0.029
- %hepatic blood flow (Rattus norvegicus [5]): 23%
- Vd [6]: 1 L/kg
- bioavailability [7]: 34%
- %hepatic blood flow (Canis familiaris [19]): 34%
- Vd [20]: 0.9 L/kg
- bioavailability [21]: 33%
- fraction unbound [8]: 0.038
- fraction unbound [12]: 0.025
- solubility at 24 h [13]: 66 µM (≈ 32.2 µg/mL)
- logD [14]: 3.8
- IC50 [15]: 2000 nM
- IC50 (cells): 270 nM
- IC50 (KB): 23000 nM
- inhibition in vivo at 100 mg/kg (Mus musculus [22]): 78%
- inhibition in vivo at 100 mg/kg (Mus musculus [23]): 36%

SMILES: C[C@@H](Oc1cccc2ncnc(Nc3ccc(OCc4ccccn4)c(Cl)c3)c12)C(=O)N(C)CCO
- IC50 [3]: 31 nM

SMILES: CN1CCN(C(=O)COc2cccc3ncnc(Nc4ccc(OCc5ccccn5)c(Cl)c4)c23)CC1
- IC50 [3]: 350 nM

SMILES: CN(CCO)C(=O)COc1cccc2ncnc(Nc3ccc(OCc4ccccn4)c(Cl)c3)c12
- IC50 [3]: 120 nM

SMILES: NC(=O)COc1cccc2ncnc(Nc3ccc(OCc4ccccn4)c(Cl)c3)c12
- IC50 [3]: 180 nM

SMILES: Cc1ccc(Oc2ccc(Nc3ncnc4cccc(O[C@H](C)C(=O)N5CCOCC5)c34)cc2Cl)cn1
- IC50 [3]: 27 nM

SMILES: C[C@@H](Oc1cccc2ncnc(Nc3ccc(OCc4ccccn4)c(Cl)c3)c12)C(=O)N(C)C
- IC50 [3]: 34 nM
- IC50 [18]: < 1 nM
- %hepatic blood flow (Rattus norvegicus [24]): 4.3%
- Vd [25]: 0.5 L/kg
- bioavailability [26]: 75%
- fraction unbound [4]: 0.004
- %hepatic blood flow (Canis familiaris [19]): 24%
- Vd [20]: 1 L/kg
- bioavailability [21]: 89%
- fraction unbound [8]: 0.011
- solubility at 24 h [13]: 6 µM (≈ 2.87 µg/mL)
- logD [14]: 3.7
- IC50 [2]: 14000 nM
- IC50 [15]: 22 nM
- IC50 (cells): 100 nM
- IC50 (KB): 1000 nM

SMILES: Cc1ccc(Oc2ccc(Nc3ncnc4cccc(O[C@@H](C)C(=O)N(C)C)c34)cc2C)cn1
- IC50 [2]: 11000 nM

Further compounds by falling IC50 [3], results first:

- IC50 [3]: 200 nM
SMILES: Cc1ccc(Oc2ccc(Nc3ncnc4cccc(O[C@H](C)C(=O)NCCO)c34)cc2C)cn1

- IC50 [3]: 140 nM
SMILES: O=C(COc1cccc2ncnc(Nc3ccc(OCc4ccccn4)c(Cl)c3)c12)N1CCOCC1

- IC50 [3]: 130 nM
SMILES: Cc1ccc(Oc2ccc(Nc3ncnc4cccc(OCC(=O)N(C)CCO)c34)cc2C)cn1

- IC50 [3]: 120 nM
SMILES: COCCN(C)C(=O)[C@@H](C)Oc1cccc2ncnc(Nc3ccc(Oc4ccc(C)nc4)c(C)c3)c12

- IC50 [3]: 78 nM
SMILES: Cc1ccc(Oc2ccc(Nc3ncnc4cccc(O[C@@H](C)C(=O)N(C)CCO)c34)cc2C)cn1

- IC50 [3]: 66 nM
SMILES: CNC(=O)[C@@H](C)Oc1cccc2ncnc(Nc3ccc(OCc4ccccn4)c(Cl)c3)c12
- IC50 [2]: 32000 nM

- IC50 [3]: 43 nM
SMILES: C[C@H](Oc1cccc2ncnc(Nc3ccc(OCc4ccccn4)c(Cl)c3)c12)C(=O)N(C)C
- IC50 [2]: 10000 nM

- IC50 [3]: 35 nM
SMILES: Cc1ccc(Oc2ccc(Nc3ncnc4cccc(O[C@@H](C)C(=O)N5CCOCC5)c34)cc2C)cn1

- IC50 [3]: 23 nM
SMILES: COc1cc(Nc2ncnc3cccc(O[C@H](C)C(=O)N4CCOCC4)c23)ccc1Oc1ccc(C)nc1

- IC50 [3]: 22 nM
SMILES: Cc1ccc(Oc2ccc(Nc3ncnc4cccc(O[C@H](C)C(=O)N5CCOCC5)c34)cc2C)cn1

- IC50 [3]: 19 nM
SMILES: C[C@@H](Oc1cccc2ncnc(Nc3ccc(OCc4ccccn4)c(Cl)c3)c12)C(=O)N1CCOCC1
- IC50 [2]: 10000 nM
